Test results reported in patent publication US20240181121A1, “A WOUND CARE PRODUCT COMPRISING AN ANTIMICROBIAL COATING” (Mölnlycke Health Care AB, priority 2021, published 2024).

Key:
S. aureus ATCC 6538 = assay: Minimum bactericidal concentration (MBC) in solution, simulated wound fluid; assay type: cell-based
Protocol: (§1) Test organisms: P. aeruginosa ATCC 9027 (bacteria), S. aureus ATCC 6538 (bacteria), C. albicans ATCC 10231 (fungi), P. aeruginosa ATCC PAO1 (bacteria, example 1b).
(§2) Test time: 24 h for bacteria and 48 h for fungi
(§3) Start inoculum: 1×10^6 CFU/ml for bacteria, 4×10^6 CFU/ml for fungi.
(§4) Tests were performed in solution to compare the potency of silver sulfate, chlorhexidine phosphate and chlorhexidine gluconate, using simulated wound fluid, SWF (fetal bovine serum (FBS) and Peptone Water (PW) mixed in equal proportions, which correspond to the protein and electrolyte concentration of wound exudates (Emiko Aiba-Kojima, M D et. al Wound Rep Reg (2007) 15 511-520; Trengove, N et al Wound Rep Reg (1996) 4 1067-1927)) as test medium. The aim was to define the lowest concentration of an antimicrobial agent required to kill the specific microorganism. The test microorganisms were suspended in SWF, in which antimicrobial substances were added at different concentration before subculture in well microtiter plates.

[1] = system: Candida albicans ATCC 10231; assay: as above; assay type: cell-based; settings: for MBC: Candida albicans, simulated wound fluid, 48 h
Protocol: as §1, §2, §3, §4

[2] = system: P. aeruginosa (ATCC 9027); assay: as above; assay type: cell-based
Protocol: as §1, §2, §3, §4

[3] = system: Pseudomonas aeruginosa PAO1 biofilms; assay: Reduction of biofilm counts in contact with CHP solution (collagen matrix, SWF); assay type: cell-based; settings: for Log count / Log reduction: biofilm, 24 h
Protocol: Tests were performed in solution to evaluate the potency of chlorhexidine phosphate (CHP) against biofilms cultured on a collagen matrix, using SWF as test medium. The aim was to define if concentrations of CHP that can be spray coated on the surface of the silicone contact layer would have an impact on the biofilms. The test microorganism was Pseudomonas aeruginosa PAO1, suspended in a SWF solution, and placed on a collagen matrix in wells of 24-well plates. The well plates were incubated at 37° C., 95% relative humidity for 24 h to induce formation of biofilms. After incubation and formation of biofilms, the antimicrobial substance CHP was added on top of biofilms at different concentrations in triplicates and were incubated for another 24 h at 37° C., 95% relative humidity. […] The number of viable counts were determined by plating on PetriFilms.

[4] = Rate of dissolution of antimicrobial coating in water, LC-MS; assay type: physicochemical; settings: 2 ml water; sterilized coated wound contact layer
Protocol: The comparison was made between prototypes spray coated with an antimicrobial solution of chlorhexidine phosphate (0.56% by weight) and prototypes spray coated with an antimicrobial solution of chlorhexidine acetate (0.68% by weight). The spray coating was performed with the same parameters and on the same equipment, as described with respect to Example 1 and 2 hereinbefore. After spraying, the samples were sent to sterilization on production site to undergo typical sterilization cycle required for antimicrobial products. […] Triplicates of silicone coated films (wound contact layers) and release liners were separated and placed in wells in contact with 2 ml solution of water during 3 hours, then removed and placed in a new well for 24 hours in order to evaluate instant (>3 h) and short (>24 h) term dissolution. After calibration of the equipment against the solutions of interest, the concentration of CHP and CHAc in the different wells was evaluated by Liquid chromatography-mass spectrometry in order to quantify the amount of antimicrobial coating that was able to dissolve instantly or shortly.

[5] = system: all microorganism (same microorganisms as used in Example 1a); assay: Antimicrobial effect of coating sprayed on silicone wound contact layer; assay type: cell-based, S. aureus, P. aeruginosa, C. albicans; settings: sterilized, 2 ml SWF
Protocol: The prototypes were punched into disks of 7 cm^2 and placed in a well in contact with 2 ml SWF containing a solution of microorganism in suspension (same microorganisms as used in Example 1a). The wound contact layer used in the tests comprised a polyurethane film coated with 200 gsm of a silicone adhesive.
Microorganism growth was evaluated on the silicone layer; i.e. the skin facing surface, and in suspension in the liquid.

Staphylococcus aureus = settings: prototype coated with 75 μg/cm^2; sterilized; 2 ml SWF
Protocol: as §1, §2, §3

With N=C(NCCCCCCNC(=N)NC(=N)Nc1ccc(Cl)cc1)NC(=N)Nc1ccc(Cl)cc1 [CHP, chlorhexidine phosphate] the MBC (S. aureus ATCC 6538; Staphylococcus aureus, ATCC6538, 24 h) was 7 µM, the MBC ([1]; ATCC10231) was 26 µM and the “times more silver than chlorhexidine phosphate required to kill Candida albicans” value ([1]; ratio silver vs chlorhexidine phosphate) was “up to 190 times”. It also gave an MBC ([2]; Pseudomonas aeruginosa, ATCC9027, 24 h) of 26 µM, a Log count ([3]; CHP 37 uM (sample 1)) of 4.4 and a Log reduction ([3]; CHP 37 uM (sample 1)) of 5.5. For the same molecule, the Log count ([3]; CHP 75 uM (sample 2)) was 3.9, the Log reduction ([3]; CHP 75 uM (sample 2)) was 6.1 and the Log count ([3]; CHP 150 uM (sample 3)) was 4.1. For the same molecule, the Log reduction ([3]; CHP 150 uM (sample 3)) was 5.9, the “log reduction of biofilms vs FDA requirement” value ([3]; CHP solutions of 37 μM, 75 μM, 150 μM) was > 4 and the “Instant dissolution % Released from silicone after 3 h” value [4] was 100%. For the same molecule, the “Total released in 24 h” value [4] was 100%, the “elimination of microorganism on the silicone surface and in the solution” value ([5]; prototype sprayed at 45 μg/cm^2) was “full elimination” and the “elimination of microorganism on the silicone surface and in the solution” value ([5]; prototype sprayed at 75 μg/cm^2) was “full elimination”.

With N=C(NCCCCCCNC(=N)NC(=N)Nc1ccc(Cl)cc1)NC(=N)Nc1ccc(Cl)cc1.O=C(O)[C@H](O)[C@@H](O)[C@H](O)[C@H](O)CO.O=C(O)[C@H](O)[C@@H](O)[C@H](O)[C@H](O)CO [CHG, chlorhexidine gluconate] the MBC (S. aureus ATCC 6538; 24 h) was 30 µM, the MBC [1] was 60 µM and the MBC ([2]; 24 h) was 520 µM.

In the case of O=S(=O)([O-])[O-].[Ag+].[Ag+] [Silver sulfate, silver sulfate], the “log reduction from inoculum size” value (Staphylococcus aureus) is reported as < 4 log, the MBC (S. aureus ATCC 6538; 24 h) is reported as 310 µM and the MBC [1] is reported as 5000 µM. For the same molecule, the MBC ([2]; 24 h) was 160 µM.

With CC(=O)O.CC(=O)O.NC(=N\CCCCCC/N=C(N)/N=C(\N)Nc1ccc(Cl)cc1)/N=C(\N)Nc1ccc(Cl)cc1 [CHAc, chlorhexidine acetate, reference compound] the “Instant dissolution % Released from silicone after 3 h” value [4] was 28% and the “Short time dissolution Additional % released from silicone after additional 21 h” value [4] was 11%.
